Laboratory results published in PubChem BioAssay AID179 (DTP/NCI, 2004).
Active and inactive are the calls of the source.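 How the source made its calls: active means compounds giving half or more protection of infected cells from virus-caused growth loss, again on retest; inactive means the rest.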

Test system: CEM cells HIV-1 protection, formazan growth assay
Experiment: NCI AIDS Antiviral Assay
Conditions: for IC50: measured here: growth of uninfected CEM cells
Outline: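 Steps: treat uninfected and HIV-1-infected human CEM cells at five drug levels; quantify growth by soluble formazan; retest any compound reaching 50% protection; classify actives from the retest.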

CC(=O)Nc1cc(N=Nc2ccc(NC(=O)c3ccc(N)cc3)cc2C)c(S(=O)(=O)O)cc1N=Nc1ccc(N=Nc2ccc(S(=O)(=O)O)cc2)cc1
EC50: 5.62 µM
IC50: > 100 µM

CCCCN1C(=O)c2cc(=O)[nH]c(O)c2C1C (centres undefined)
EC50: > 1050 µM
IC50: 676 µM

O=c1ccc2c(cc3ccc4cccc5ccc2c3c45)o1
outcome: inactive

CC(C)C(=O)N[C@@H](C)C(=O)N(Cc1ccc2ccccc2c1)N=O
outcome: inactive

CCN=C(NC(=O)c1ccc(Cl)cc1)SCSC(=NCC)NC(=O)c1ccc(Cl)cc1
EC50: > 200 µM
IC50: 72.4 µM

CC(C)=CCCC1(C)C=Cc2c(cc(O)c3c(=O)c4cccc(O)c4oc23)O1 (centres undefined)
EC50: > 200 µM
IC50: 33.9 µM

C/C(=N\N=C(/C)C1CC(CC(=O)O)C1(C)C)C1CC(CC(=O)O)C1(C)C (centres undefined)
EC50: > 186 µM
IC50: > 186 µM

Cc1ccc(C(=O)NC(C)C)cc1N=NN(C)C
EC50: > 145 µM
IC50: > 145 µM

C=C(C(=O)C(=O)Oc1ccc(Cl)cc1)C(=O)c1ccc(C)cc1
EC50: > 79.4 µM
IC50: > 79.4 µM

C=C(C)[C@@H]1CC[C@]2(C)CC[C@@]3(C)[C@]4(C)CC[C@H]5C(C)(C)[C@@H](OC(=O)CCC(=O)O)CC[C@]5(C)[C@H]4CC[C@]3(C)[C@@H]12
EC50: 44.7 µM
IC50: > 100 µM

CC(Cn1c2c3ccccc3ccc2c2oc(=O)c3ccccc3c21)N(C)C (centres undefined)
EC50: > 3.89 µM
IC50: > 3.89 µM

Nc1c(C(=O)Nc2ccccc2)[n+]([O-])c2ccccc2[n+]1[O-]
outcome: inactive

Cc1ccc(C(=O)Nc2ccc(S(=O)(=O)O)c3cc(S(=O)(=O)O)cc(S(=O)(=O)O)c23)cc1N
EC50: > 200 µM
IC50: > 200 µM

O=c1n(-c2ccccc2)c2nc3ccccc3nc2n1-c1ccc(Cl)c(Cl)c1
EC50: > 61.7 µM
IC50: 30.2 µM

COc1ccccc1NC(=O)C(=O)C(C(=O)c1ccccc1F)C1OC(=O)c2ccccc21 (centres undefined)
EC50: > 288 µM
IC50: 20.9 µM

Cn1c(COC(=O)Nc2ccccc2)c(COC(=O)Nc2ccccc2)c2ccc3cc(Cl)c(Cl)cc3c21
EC50: > 200 µM
IC50: 0.468 µM

C=C1C(=O)OC2CC(C)C3C=CC(=O)C3CC12 (centres undefined)
EC50: > 200 µM
IC50: 0.537 µM

CN(C)c1ccc(/C=C/C(=O)c2ccccc2)cc1Br
EC50: > 15.8 µM
IC50: > 15.8 µM

Cc1cc2c(cc1C)C(=O)C(=O)N2
EC50: > 148 µM
IC50: > 148 µM

FC(F)(F)/C(=N/Nc1ccccc1)SS/C(=N\Nc1ccccc1)C(F)(F)F
EC50: > 200 µM
IC50: 38 µM

C[C@H]1ON2CCC[C@@H]2[C@@H]1C(=O)N1C2CC3CCC2(CS1(=O)=O)C3(C)C (some centres undefined)
EC50: > 200 µM
IC50: > 200 µM

Cc1c(C)c(CC(C)(COS(C)(=O)=O)COS(C)(=O)=O)c(C)c(C)c1CC(C)(COS(C)(=O)=O)COS(C)(=O)=O
EC50: > 20.9 µM
IC50: > 20.9 µM

O=c1oc2ccccc2c(O)c1C(c1ccc(/C=C/c2ccccc2)cc1)c1c(O)c2ccccc2oc1=O
EC50: > 200 µM
IC50: 15.1 µM

O=C(NCCc1c[nH]c2ccccc12)C(F)(F)C(F)(F)F
EC50: > 200 µM
IC50: 38 µM

O=C1C=CC(=O)c2c1ccc1c3ccccc3n(CCCCCn3c4ccccc4c4ccc5c(c43)C(=O)C=CC5=O)c21
EC50: > 200 µM
IC50: 3.31 µM

Cc1cc(=O)oc2c1ccc1occc(=O)c12
EC50: > 100 µM
IC50: 56.2 µM

O=[N+]([O-])c1cc([As](=O)(O)O)ccc1O
EC50: > 200 µM
IC50: > 200 µM

CCN(CC)CCCn1c(=O)c2ccccc2n2c3c(=O)n(C)c(=O)n(C)c3nc12
EC50: > 200 µM
IC50: 1.05 µM

COC(=O)NC(Nc1ccc(C)cc1)(C(F)(F)F)C(F)(F)F
outcome: inactive

O=C1Oc2ccccc2C1C/C(=N\Nc1ccccc1)c1ccccc1O (centres undefined)
EC50: > 93.3 µM
IC50: 79.4 µM

CC1=[N+]([O-])C(C)(C)N(N=O)C1(C)C
EC50: > 200 µM
IC50: > 200 µM

N#Cc1c(-c2ccc([N+](=O)[O-])cc2)c(C#N)c(=O)n(NS(=O)(=O)c2ccccc2)c1-c1ccccc1
EC50: > 200 µM
IC50: 36.3 µM

CCC1c2c(cc(=O)[nH]c2O)C(=O)N1Cc1ccccc1 (centres undefined)
EC50: > 398 µM
IC50: > 398 µM

C=C1SC(=Nc2ccccc2Cl)N(C(=O)c2sc3ccccc3c2Cl)C1(C)C
EC50: > 25.1 µM
IC50: 11.5 µM

CCOC(=O)CN1C(=O)C(=O)c2ccccc21
EC50: > 200 µM
IC50: 33.9 µM

O=C(CCC(=O)Nc1ccc(Cl)c(Cl)c1)CC(=O)c1ccc(F)cc1
EC50: > 67.6 µM
IC50: > 67.6 µM

N#CCC(=O)N/N=C\C(O)C(O)C(O)C(O)CO (centres undefined)
outcome: inactive

Cc1cc(=O)n2c(nc3ccccc32)s1
EC50: > 200 µM
IC50: > 200 µM

O=c1c2ccccc2oc2c(Cl)cc(Cl)cc12
EC50: > 490 µM
IC50: 263 µM

C/C(CCn1[nH]c(=O)ccc1=O)=N\O
EC50: > 1070 µM
IC50: > 1070 µM

CCOC(CC(=O)NCCNC(C)=O)OCC
outcome: inactive

CC(=O)OC1(C#N)CC2OC1C1NC21 (centres undefined)
EC50: > 676 µM
IC50: > 676 µM

CC(C)(C)OC(=O)NC(Cc1ccc(OC(C)(C)C)cc1)C(=O)N[C@H]1CC[C@H](C(=O)O)C1 (some centres undefined)
outcome: inactive

COc1ccc2c3c(n(Cc4ccccc4)c(=O)c2c1)-c1cc(OC)c(OC)cc1C3C (centres undefined)
EC50: > 6.31 µM
IC50: > 6.31 µM

O=[N+]([O-])c1ccc(C2=Nc3ccccc3N=C(c3ccccc3O)C2)cc1
EC50: > 200 µM
IC50: > 200 µM

Cc1noc(C(F)(F)Sc2ncccn2)n1
EC50: 174 µM
IC50: > 200 µM

CC1(C)Oc2cc(OCc3ccccc3)ccc2C2Oc3cc(OCc4ccccc4)c(O)cc3C21 (centres undefined)
EC50: > 200 µM
IC50: 79.4 µM

CC1OC2=N[C@@H]1C(=O)N[C@@H](C(C)C)C1=N[C@H](C(=O)N[C@@H](C(C)C)C3=N[C@H](C(=O)N[C@@H](C(C)C)C4=N[C@H](C(=O)N[C@H]2C(C)C)C(C)O4)C(C)O3)C(C)O1 (some centres undefined)
EC50: > 200 µM
IC50: > 200 µM

Nc1ccccc1S(=O)c1ccccc1 (centres undefined)
EC50: > 275 µM
IC50: > 275 µM

Fc1cccc(C2SCc3nc4ccccc4n32)c1F (centres undefined)
outcome: inactive

Cc1ccc(NC(=O)C(=O)Cc2nc3ccccc3o2)c(C)c1
EC50: > 12.3 µM
IC50: > 12.3 µM

CCOC(=O)c1nc2ccccc2nc1NCc1cc(OC)c(OC)c(OC)c1
EC50: > 200 µM
IC50: 27.5 µM

CN1C/C(=C\c2ccncc2)C(=O)/C(=C/c2ccncc2)C1
EC50: 52.5 µM
IC50: > 200 µM

COC(OC)C1(c2ccccc2)Oc2ccccc2C1=O (centres undefined)
EC50: > 166 µM
IC50: 81.3 µM

CC12CCC3C(CCC4=CC(OC5OC(CO)C(O)C(O)C5O)CCC43C=O)C1(O)CCC2c1ccc(=O)oc1 (centres undefined)
EC50: > 0.02 µM
IC50: 0.00316 µM

CC1(Nc2ccccc2)OC(=O)c2ccccc21 (centres undefined)
EC50: > 200 µM
IC50: > 200 µM

COc1cc(N)c2[nH]c3c(C)ccc(C)c3c2c1
EC50: > 30.2 µM
IC50: > 30.2 µM

Nc1nc(Cl)c2[nH]c(Cl)nc2n1
EC50: > 200 µM
IC50: 132 µM

Cc1cn(C2CCC(COP(=O)(OCOC(=O)C(C)(C)C)OCOC(=O)C(C)(C)C)O2)c(=O)[nH]c1=O (centres undefined)
outcome: active

O=C1CN(/C=C(/c2ccc(Cl)cc2)S(=O)(=O)Cc2ccc(Cl)cc2)C(=S)N1
EC50: > 200 µM
IC50: > 200 µM

NC(N)=N/N=C(\c1ccc(F)cc1)C1CC1
EC50: > 200 µM
IC50: 33.9 µM

COC(=O)CCC(=O)Nc1cc(Cl)ccc1Cl
EC50: > 468 µM
IC50: > 468 µM

O=C1OC(=O)N2CSCC12 (centres undefined)
EC50: > 1580 µM
IC50: > 1580 µM

CCOC(=O)C(C)(c1c(C)n(C)c2ccccc12)c1c(C)n(C)c2ccccc12
EC50: > 200 µM
IC50: > 100 µM

CCOC(=O)C(CSSCC(NC(C)=O)C(=O)OCC)NC(C)=O (centres undefined)
EC50: 81.3 µM
IC50: 141 µM

Cc1cc(C)nc(NS(=O)(=O)c2ccc(Nc3c4ccccc4nc4c(C(=O)N5CCN(CCOS(C)(=O)=O)CC5)cccc34)cc2)n1
EC50: > 42.7 µM
IC50: > 42.7 µM

Cc1[nH]c(=S)[nH]c(=O)c1CCl
EC50: > 200 µM
IC50: 107 µM

S=c1n(-c2ccc(Cl)cc2)c2nc3ccccc3nc(/c2=N\Nc2ccccc2)n1-c1ccccn1
EC50: > 37.2 µM
IC50: 29.5 µM

CCOC(=O)CCC1(C(=O)OCC)CCCCC1=O (centres undefined)
EC50: > 251 µM
IC50: > 251 µM

CCOC(=O)/C(=C/c1ccc(OC)c(OC)c1)C(=O)c1ccccc1
EC50: > 75.9 µM
IC50: 40.7 µM

O=C(Nc1ccccc1)n1[nH]c(=O)n(-c2ccccc2)c1=O
EC50: > 200 µM
IC50: > 200 µM

N#Cc1ccc(Nc2cnc3cc(N)ccc3n2)cc1
EC50: > 20 µM
IC50: > 20 µM

O=C(O)CSC(=S)N1CCCC1
EC50: > 200 µM
IC50: 102 µM

CC(C)OP(=O)(OC(C)C)C([CH2][Sn]([CH3])([CH3])[Br])P(=O)(OC(C)C)OC(C)C
EC50: > 200 µM
IC50: 8.71 µM

CN(C)C(=S)N/N=C\C(=N/NC(=S)N(C)C)c1ccccc1
EC50: > 200 µM
IC50: 12.9 µM

CCOC(=O)n1ccc2c(C(=O)OC)c(C(=O)OC)cc(/C(=C/C(=O)OC)C(=O)OC)c21
EC50: > 151 µM
IC50: 102 µM

CC1=CC(=O)N2[C@H](OC[C@@H]2C(C)C)O1
EC50: > 1260 µM
IC50: > 1260 µM

O=C(O)c1ccc([N+](=O)[O-])c2c(=O)c3ccccc3[nH]c12
outcome: inactive

CO/C(=N\Nc1ccc([N+](=O)[O-])cc1)P(=O)(OC(C)C)OC(C)C
EC50: > 12.9 µM
IC50: > 12.9 µM

COc1c(Br)cc(Br)c(OC)c1-c1[nH]c(Br)c(Br)c1Br
EC50: > 16.6 µM
IC50: > 16.6 µM

O=C(CC12C3C4C1C1C2C3C41CC(=O)NO)NO (centres undefined)
EC50: > 251 µM
IC50: 49 µM

C=CCOc1ccc(C2C(C(=O)OC)C(=O)CC(O)(c3ccccc3)C2C(=O)OC)cc1OC (centres undefined)
EC50: > 100 µM
IC50: > 100 µM

O=C(CCCN1CCC2(CC1)CC(=O)N(N1CCOCC1)C2=O)c1ccccc1
EC50: > 200 µM
IC50: > 200 µM

O=c1/c(=C/c2ccco2)sc2nc3ccccc3n12
EC50: > 3.89 µM
IC50: > 3.89 µM

Cc1nc(N)nn1C1OCC(O)C(O)C1O (centres undefined)
outcome: inactive

CCSc1sc(=Nc2ccc(N=c3sc(C)c(SC)s3)cc2)sc1-c1ccc(C)cc1
outcome: inactive

CCc1nc(N)nc(N)c1-c1ccc(Cl)cc1
EC50: > 1 µM
IC50: 0.0372 µM

CCOC1CC(C)N(C(=O)c2ccccc2)O1 (centres undefined)
EC50: > 200 µM
IC50: > 200 µM
